From patent publication US20070231260A1, “Transporter-targeted methods of diagnosis and treatment” (priority 2005, published 2007)

Test system: cells that overexpress MCT1
Assay: Cytotoxicity (GI50) of bromopyruvate in cells not expressing MCT1 (-TET) and induced to express MCT1 (+TET)
Type: cell-based
Details: GI50, +TET vs -TET cells; FIG. 2

In the case of `O=C(O)C(=O)CBr` [bromopyruvate, Bromopyruvate], the “fold higher toxicity to cells that overexpress MCT1” value is reported as “more than 20 times”.
